Measurements published in patent US20090092740A1, “METHOD FOR INCREASING LONG-TERM STORAGE OF CUT FLOWERS” (GREENOY LTD., priority 2006, published 2009).

System: cut Rose Flowers (Akito and Red One varieties)
Conditions: several ppm in acrylic emulsion (tested 0.8 to 11.2 ppm); stored at 2° C. for one month; FIG. 1
Protocol: The flowers were dipped in several emulsions that included several concentration of STS (diluted from 8 g/l by taking from 0.1 to 1.4 ml per liter), ranging from 0.8 to 11.2 ppm. A bunch of roses, flowers and leaves, was dipped in the solution at each concentration for 2 seconds three times. Each treatment included 10 flowers. After the dip process, the flowers were put on a net for 10 minutes, so that an excess solution could drain off. The flowers were kept in an impregnation box at 2° C. for one month, and then they were allocated in vases for quality and shelf life assessments. The quality and appearance of the flowers were checked every day (FIG. 1).

silver thiosulfate
quality of the stored roses: improves the quality of the stored roses
